Assay results taken from US9315494B2, “Alkyl-amide-substituted pyridyl compounds useful as modulators of IL-12, IL-23 and/or IFNα responses” (Bristol-Myers Squibb Company, priority 2012, dated 2016).

Tests used:
[1] = tested on: IFNα-stimulated STAT-dependent luciferase reporter in Kit225 T cells; assay: Kit225 T cell assay, IFNα stimulated STAT-dependent luciferase reporter; type: cell-based, human; settings: Kit225 T cells, 200 U/mL human recombinant IFNα, 5-6 hours, luciferase; read-out: IFNα (Kit225 T Cell Inhibition Data)
Procedure: (§1) Kit225 T cells with a stably-integrated STAT-dependent luciferase reporter were plated in RPMI (Gibco) containing 10% heat-inactivated FBS (Gibco) and 100 U/mL PenStrep (Gibco). The cells were then stimulated with either 20 ng/mL human recombinant IL-23 or 200 U/mL human recombinant IFNα (PBL InterferonSource) for 5-6 hours. Luciferase expression was measured using the STEADY-GLO® Luciferase Assay System (Promega) according to the manufacturer's instructions.

[2] = tested on: IL-23-stimulated STAT-dependent luciferase reporter in Kit225 T cells; assay: Kit225 T cell assay, IL-23 stimulated STAT-dependent luciferase reporter; type: cell-based, human; settings: Kit225 T cells, 20 ng/mL human recombinant IL-23, 5-6 hours, luciferase; read-out: IL23 (Kit225 T Cell Inhibition Data)
Procedure: as §1

Row | IC50 [1] [nM] | IC50 [2] [nM] | SMILES
1 | 30 | 80 | CNC(=O)c1cnc(Nc2cc(C)nc(C)n2)cc1Nc1cccc(-c2ncnn2CC(F)F)c1OC [Example 379]
2 | 50 | 119 | CNC(=O)c1cnc(Nc2cccc(OC)n2)cc1Nc1cc(F)cc(F)c1OC [Example 130]
3 | 120 | 220 | CNC(=O)c1cnc(Nc2cc(C)c(F)cn2)cc1Nc1cccc(C(=O)NCC(C)(C)C)c1OC [Example 340]
4 | 540 | 565 | CNC(=O)c1cnc(Nc2ccc(F)cn2)cc1Nc1ccc(OC)cc1OC [Example 192]
5 | 20 | 50 | CNC(=O)c1cnc(Nc2cc(C)nc(C)n2)cc1Nc1cccc(-c2ncnn2CC(F)(F)F)c1OC [Example 381]
6 | 8.61 | 20 | CNC(=O)c1cnc(Nc2cc(C)nc(C)n2)cc1Nc1cccc(F)c1OC [Example 410]
7 | 180 | 376 | CNC(=O)c1cnc(Nc2cccc(C#N)n2)cc1Nc1ccccc1S(C)(=O)=O [Example 27]
8 | 700 | 830 | CNC(=O)c1cnc(Nc2ccc(-n3cc(F)ccc3=O)cn2)cc1Nc1ccc(F)cc1OC [Example 126]
9 | 80 | 110 | CNC(=O)c1cnc(Nc2cc(C)c(F)cn2)cc1Nc1cccc(C(=O)NCCc2ccccc2)c1OC [Example 337]
10 | 230 | 306 | CNC(=O)c1cnc(Nc2cc(C)c(C#N)c(C)n2)cc1Nc1ccc(F)cc1OC [Example 163]
11 | 80 | 86.6 | CNC(=O)c1cnc(Nc2cc(C)ccn2)cc1Nc1cc(F)cc(F)c1OC [Example 129]
12 | 3250 | 2730 | CNC(=O)c1cnc(Nc2cc(C#N)ccn2)cc1Nc1cnccc1OC [Example 179]
13 | 170 | 120 | CNC(=O)c1cnc(Nc2cc(C)nc(C)n2)cc1Nc1cccc(-c2ncn(CC(C)(C)O)n2)c1OC [Example 384]
14 | 6590 | 11400 | CNC(=O)c1cnc(Nc2ccc(C(F)(F)F)cn2)cc1NC1CCCCC1C(N)=O (stereo not shown) [Example 290]
15 | 120 | 158 | CNC(=O)c1cnc(Nc2cc(C)ccn2)cc1Nc1ccc(F)c(F)c1OC [Example 100]
16 | 560 | 784 | CNC(=O)c1cnc(Nc2cccc(OC)n2)cc1Nc1ccc(F)cc1OC [Example 154]
17 | 570 | 1160 | CNC(=O)c1cnc(Nc2ccc(C#N)c(C)n2)cc1Nc1ccc(Cl)cc1OC [Example 118]
18 | 2000 | 1540 | CNC(=O)c1cnc(Nc2cc(F)ccn2)cc1Nc1cccc(F)c1S(C)(=O)=O [Example 50]
19 | 11400 | 4780 | CNC(=O)c1cnc(Nc2ccc3ccccc3n2)cc1NC1CCC(F)(F)CC1O (stereo not shown) [Example 293]
20 | 220 | 354 | CNC(=O)c1cnc(Nc2cccc(C(F)(F)F)n2)cc1Nc1cc(F)cc(F)c1OC [Example 138]
21 | 60 | 60 | CNC(=O)c1cnc(Nc2cc(C)c(F)cn2)cc1Nc1cccc(C(=O)NCCCOC)c1OC [Example 349]
22 | 3120 | 9180 | CNC(=O)c1cnc(Nc2ccc(F)cn2)cc1Nc1ccccc1N [Example 231]

Row | IC50 [1] [nM] | IC50 [2] [nM] | SMILES
23 | 5990 | 5050 | CNC(=O)c1cnc(Nc2ccc(F)cn2)cc1Nc1ccccc1NC(C)=O [Example 280]
24 | 190 | 386 | CCOc1ccccc1Nc1cc(Nc2ccc(N3CCOCC3)cn2)ncc1C(=O)NC [Example 223]
25 | 40 | 50.7 | CNC(=O)c1cnc(Nc2cccc(F)n2)cc1Nc1ccccc1S(C)(=O)=O [Example 20]
26 | 30 | 20 | CNC(=O)c1cnc(Nc2cc(C)nc(C)n2)cc1Nc1cccc(-c2nc(C)nn2C)c1OC [Example 367]
27 | 80 | 190 | CNC(=O)c1cnc(Nc2cc(C)nc(C)n2)cc1Nc1cccnc1OC [Example 314]
28 | 30 | 120 | CNC(=O)c1cnc(Nc2ccc(F)cn2)cc1Nc1cccc(C#N)c1OC [Example 357]
29 | 1720 | 1620 | CNC(=O)c1cnc(Nc2cc(OC)ccn2)cc1Nc1ccc(F)cc1OC [Example 170]
30 | 740 | 785 | CNC(=O)c1cnc(Nc2cc(C(=O)N3CCCC3)ccn2)cc1Nc1ccc(F)cc1OC [Example 268]
31 | 120 | 240 | CNC(=O)c1cnc(Nc2ccc(N3CCC(C)(O)CC3)cn2)cc1Nc1ccccc1S(C)(=O)=O [Example 436]
32 | 240 | 502 | CNC(=O)c1cnc(Nc2ccccn2)cc1Nc1ccccc1C(N)=O [Example 68]
33 | 7850 | 7810 | CNC(=O)c1cnc(Nc2ccc(F)cn2)cc1Nc1ccccc1-c1nnc[nH]1 [Example 186]
34 | 240 | 450 | CNC(=O)c1cnc(Nc2cc(C)c(F)cn2)cc1Nc1ccc(C(=O)N(C)C)cc1S(C)(=O)=O [Example 412]
35 | 7.74 | 30 | CNC(=O)c1cnc(Nc2cc(C)c(F)cn2)cc1Nc1cccc(-c2nnc[nH]2)c1OC [Example 360]
36 | 330 | 1190 | CNC(=O)c1cnc(Nc2cc(F)ccn2)cc1Nc1ccc(F)cc1OC [Example 149]
37 | 2900 | 2580 | CNC(=O)c1cnc(Nc2ccc(F)cn2)cc1Nc1ccccc1C1CC1 [Example 185]
38 | 380 | 578 | CNC(=O)c1cnc(Nc2ccc(C)cn2)cc1Nc1ccccc1C(N)=O [Example 72]
39 | 10 | 90 | CNC(=O)c1cnc(Nc2cc(C)c(F)cn2)cc1Nc1cccc(C(N)=O)c1OC [Example 319]
40 | 430 | 1290 | CNC(=O)c1cnc(Nc2ccc(F)cn2)cc1Nc1ccc(OC(F)(F)F)cc1C(N)=O [Example 252]
41 | 2720 | 7160 | CCNC(=O)c1cnc(Nc2ccc(F)cn2)cc1Nc1ccccc1OC [Example 296]
42 | 200 | 433 | CNC(=O)c1cnc(Nc2cc(C(=O)NC3CC3)ccn2)cc1Nc1ccc(Cl)cc1OC [Example 259]
43 | 310 | 646 | CNC(=O)c1cnc(Nc2cc(C(=O)N(C)C)ccn2)cc1Nc1ccc(F)c(F)c1OC [Example 258]
44 | 5300 | 4530 | CNC(=O)c1cnc(Nc2ccc(F)cn2)cc1Nc1ccc(C2CC2)cc1 [Example 198]

Row | IC50 [1] [nM] | IC50 [2] [nM] | SMILES
45 | 1540 | 3740 | CNC(=O)c1cnc(Nc2ccc(F)cn2)cc1Nc1ccc(C(=O)NC2CC2F)cc1S(C)(=O)=O (stereo not shown) [Example 307]
46 | 700 | 1420 | CNC(=O)c1cnc(Nc2ccc(F)cn2)cc1Nc1ccc(C(=O)N2CCCCC2)cc1C [Example 235]
47 | 780 | 1230 | CNC(=O)c1cnc(Nc2ccc(C(F)(F)F)cn2)cc1Nc1ccccc1C(N)=O [Example 82]
48 | 160 | 190 | CNC(=O)c1cnc(Nc2ccc(F)cn2)cc1Nc1ccc(-c2ncco2)cc1S(C)(=O)=O [Example 311]
49 | 440 | 352 | CNC(=O)c1cnc(Nc2cc(OC)ccn2)cc1Nc1cc(F)cc(F)c1OC [Example 169]
50 | 160 | 200 | CNC(=O)c1cnc(Nc2cc(C)c(C#N)cn2)cc1Nc1ccccc1S(C)(=O)=O [Example 447]
51 | 410 | 727 | CNC(=O)c1cnc(Nc2ccc(C(=O)N(C)C)cn2)cc1Nc1ccc(Cl)cc1OC [Example 262]
52 | 8130 | 9320 | CNC(=O)c1cnc(Nc2ccc(F)cn2)cc1Nc1ccc(F)c(F)c1 [Example 204]
53 | 10 | 9.45 | CNC(=O)c1cnc(Nc2cc(C)nc(C)n2)cc1Nc1cccc(-c2nc(C)n(CCF)n2)c1OC [Example 368]
54 | 3110 | 2650 | CNC(=O)c1cnc(Nc2ccc(F)cn2)cc1Nc1ccc(C(=O)N2CCOCC2)cc1S(C)(=O)=O [Example 305]
55 | 410 | 774 | CNC(=O)c1cnc(Nc2ccc(F)cn2)cc1Nc1ccccc1C(N)=O [Example 63]
56 | 370 | 481 | CNC(=O)c1cnc(Nc2ccc(F)cn2)cc1Nc1ccccc1SC [Example 65]
57 | 80 | 80 | CNC(=O)c1cnc(Nc2cc(C)c(F)cn2)cc1Nc1cccc(C(=O)NCC(C)C)c1OC [Example 350]
58 | 260 | 802 | CNC(=O)c1cnc(Nc2ccc(N3CCOCC3)cn2)cc1Nc1ccc(F)cc1OC [Example 218]
59 | 190 | 160 | CNC(=O)c1cnc(Nc2cc(F)ccn2)cc1Nc1cc(F)ccc1S(C)(=O)=O [Example 57]
60 | 760 | 574 | CNC(=O)c1cnc(Nc2cc(F)ccn2)cc1Nc1ccccc1C(N)=O [Example 71]
61 | 90 | 120 | CNC(=O)c1cnc(Nc2cc(C)c(F)cn2)cc1Nc1cccc(C(=O)NCCC(C)(C)O)c1OC [Example 333]
62 | 40 | 60 | CNC(=O)c1cnc(Nc2cc(C)c(F)cn2)cc1Nc1ccccc1S(C)(=O)=O [Example 60]
63 | 70 | 190 | CNC(=O)c1cnc(Nc2cc(C)c(F)cn2)cc1Nc1cccc(C(=O)NCC(C)(C)O)c1OC [Example 347]
64 | 1880 | 4510 | CNC(=O)c1cnc(Nc2ccc(C(F)(F)F)cn2)cc1Nc1ccc(Cl)cc1OC [Example 120]

Row | SMILES | IC50 [1] [nM] | IC50 [2] [nM]
65 | CNC(=O)c1cnc(Nc2cc(C#N)ccn2)cc1Nc1ccccc1S(C)(=O)=O [Example 30] | 580 | 753
